According to patent US20210284639A1, “TYROSINE AMIDE DERIVATIVES AS RHO- KINASE INHIBITORS” (CHIESI FARMACEUTICI S.p.A., priority 2018, published 2021):

Columns and labels:
ROCK 1 (Rho kinase 1) = ROCK 1 (Rho kinase 1) (Homo sapiens, UniProt Q13464); experiment: In vitro inhibitory activity assay (ADP-Glo), Rho kinase 1; format: biochemical; conditions: Ki by Cheng-Prusoff from IC50; 10 μM ATP, 25° C.
Description: (§1) In Vitro Inhibitory Activity Assay Description
(§2) The effectiveness of compounds of the present invention to inhibit Rho kinase activity can be determined in a 10 μl assay containing 40 mM Tris pH7.5, 20 mM MgCl2 0.1 mg/ml BSA, 50 μM DTT and 2.5 μM peptide substrate (Myelin Basic Protein) using an ADP-Glo kit (Promega). Compounds were dissolved in DMSO such that the final concentration of DMSO was 1% in the assay. All reactions/incubations are performed at 25° C. Compound (2 μl) and either Rho kinase 1 or 2 (4 μl) were mixed and incubated for 30 mins. Reactions were initiated by addition of ATP (4 μl) such that the final concentration of ATP in the assay was 10 μM. After a 1 hour incubation 10 μl of ADP-Glo Reagent was added and after a further 45 minute incubation 20 μl of Kinase Detection Buffer was added and the mixture incubated for a further 30 minutes. The luminescent signal was measured on a luminometer. […] Compounds were tested in dose-response format and the inhibition of kinase activity was calculated at each concentration of compound. To determine the IC50 (concentration of compound required to inhibit 50% of the enzyme activity) data were fit to a plot of % inhibition vs Log10 compound concentration using a sigmoidal fit with a variable slope and fixing the maximum to 100% and the minimum to 0%. To determine the Ki values the Cheng-Prusoff equation was utilized (Ki=IC50/(1+[S]/Km).

ROCK 2 (Rho kinase 2) = ROCK 2 (Rho kinase 2) (Homo sapiens, UniProt O75116); experiment: In vitro inhibitory activity assay (ADP-Glo), Rho kinase 2; format: biochemical; conditions: Ki by Cheng-Prusoff from IC50; 10 μM ATP, 25° C.
Description: as §1, §2

Chain of ROCK 2 (Rho kinase 2) (O75116 whole entry): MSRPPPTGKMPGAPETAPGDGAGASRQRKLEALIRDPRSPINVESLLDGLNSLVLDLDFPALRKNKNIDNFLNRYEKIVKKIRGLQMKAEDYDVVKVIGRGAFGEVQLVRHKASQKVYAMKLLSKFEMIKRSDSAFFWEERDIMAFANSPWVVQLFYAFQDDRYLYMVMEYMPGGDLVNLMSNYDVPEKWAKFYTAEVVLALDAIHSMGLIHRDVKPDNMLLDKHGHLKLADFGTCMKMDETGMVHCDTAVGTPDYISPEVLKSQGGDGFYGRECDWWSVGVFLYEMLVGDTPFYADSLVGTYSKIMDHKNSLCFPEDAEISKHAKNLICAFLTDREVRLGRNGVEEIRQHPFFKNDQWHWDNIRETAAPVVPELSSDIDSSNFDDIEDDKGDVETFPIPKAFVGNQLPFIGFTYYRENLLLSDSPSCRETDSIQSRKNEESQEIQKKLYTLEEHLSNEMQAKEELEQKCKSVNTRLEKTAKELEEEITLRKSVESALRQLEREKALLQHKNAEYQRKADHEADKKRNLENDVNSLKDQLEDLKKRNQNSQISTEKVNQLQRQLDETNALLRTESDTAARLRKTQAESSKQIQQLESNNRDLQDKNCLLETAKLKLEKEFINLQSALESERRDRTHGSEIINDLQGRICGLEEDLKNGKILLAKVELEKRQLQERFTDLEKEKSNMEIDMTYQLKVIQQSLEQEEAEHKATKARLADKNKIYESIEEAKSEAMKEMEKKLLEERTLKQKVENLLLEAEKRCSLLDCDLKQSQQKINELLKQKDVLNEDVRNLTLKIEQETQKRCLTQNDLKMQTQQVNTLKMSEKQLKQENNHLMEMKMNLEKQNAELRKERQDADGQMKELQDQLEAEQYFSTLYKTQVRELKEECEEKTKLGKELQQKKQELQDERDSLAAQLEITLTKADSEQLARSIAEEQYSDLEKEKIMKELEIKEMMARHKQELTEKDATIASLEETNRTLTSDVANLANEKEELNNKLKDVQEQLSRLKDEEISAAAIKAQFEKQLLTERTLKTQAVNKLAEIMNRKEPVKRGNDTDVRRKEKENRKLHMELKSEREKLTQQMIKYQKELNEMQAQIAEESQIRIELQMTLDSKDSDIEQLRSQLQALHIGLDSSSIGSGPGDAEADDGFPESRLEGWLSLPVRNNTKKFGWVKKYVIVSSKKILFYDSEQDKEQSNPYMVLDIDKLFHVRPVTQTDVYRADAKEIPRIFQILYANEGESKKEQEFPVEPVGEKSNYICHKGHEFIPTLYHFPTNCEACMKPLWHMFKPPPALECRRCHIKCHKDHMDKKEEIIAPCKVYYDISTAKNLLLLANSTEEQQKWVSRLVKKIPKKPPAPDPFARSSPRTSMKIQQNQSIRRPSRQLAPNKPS
Chain of ROCK 1 (Rho kinase 1) (Q13464 whole entry): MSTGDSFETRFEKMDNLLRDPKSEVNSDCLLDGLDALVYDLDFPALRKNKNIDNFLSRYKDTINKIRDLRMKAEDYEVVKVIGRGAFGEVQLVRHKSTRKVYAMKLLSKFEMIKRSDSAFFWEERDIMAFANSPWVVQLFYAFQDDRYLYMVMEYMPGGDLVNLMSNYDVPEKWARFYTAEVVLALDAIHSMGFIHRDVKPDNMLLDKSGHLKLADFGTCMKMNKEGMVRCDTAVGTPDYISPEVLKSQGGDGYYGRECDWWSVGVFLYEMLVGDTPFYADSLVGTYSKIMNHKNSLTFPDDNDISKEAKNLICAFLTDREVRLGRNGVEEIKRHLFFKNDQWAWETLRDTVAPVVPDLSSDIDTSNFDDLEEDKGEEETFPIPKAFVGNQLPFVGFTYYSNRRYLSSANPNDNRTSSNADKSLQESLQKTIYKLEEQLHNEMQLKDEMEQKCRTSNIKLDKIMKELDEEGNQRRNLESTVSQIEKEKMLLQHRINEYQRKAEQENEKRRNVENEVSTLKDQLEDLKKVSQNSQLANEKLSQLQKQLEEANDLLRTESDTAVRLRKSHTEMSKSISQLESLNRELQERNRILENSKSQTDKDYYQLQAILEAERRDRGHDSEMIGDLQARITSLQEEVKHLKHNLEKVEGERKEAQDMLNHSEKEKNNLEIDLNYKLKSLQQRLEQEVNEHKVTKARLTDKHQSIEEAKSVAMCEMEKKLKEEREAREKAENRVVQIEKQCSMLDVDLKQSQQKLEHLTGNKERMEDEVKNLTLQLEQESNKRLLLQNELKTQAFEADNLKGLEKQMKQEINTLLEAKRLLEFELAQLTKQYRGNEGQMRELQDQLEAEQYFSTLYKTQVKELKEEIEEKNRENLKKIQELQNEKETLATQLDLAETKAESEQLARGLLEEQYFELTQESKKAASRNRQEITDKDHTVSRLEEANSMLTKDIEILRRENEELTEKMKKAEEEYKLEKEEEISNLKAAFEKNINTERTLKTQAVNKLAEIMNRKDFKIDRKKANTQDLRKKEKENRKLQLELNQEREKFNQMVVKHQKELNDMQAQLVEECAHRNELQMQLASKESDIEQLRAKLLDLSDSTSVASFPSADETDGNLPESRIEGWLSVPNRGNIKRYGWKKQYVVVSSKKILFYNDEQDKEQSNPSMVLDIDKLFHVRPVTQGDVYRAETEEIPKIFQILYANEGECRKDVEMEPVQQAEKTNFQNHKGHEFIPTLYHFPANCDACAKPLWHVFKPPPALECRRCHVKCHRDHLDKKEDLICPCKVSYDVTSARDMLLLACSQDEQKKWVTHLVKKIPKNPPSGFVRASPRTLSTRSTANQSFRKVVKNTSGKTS

| Ki (ROCK 1 (Rho kinase 1)) [nM] | Ki (ROCK 2 (Rho kinase 2)) [nM] | SMILES |
| --- | --- | --- |
| 3 to 30 | < 3 | Cc1c[nH]c2nccc(Oc3ccc(C[C@H](N)C(=O)N4CCN(C)CC45CC5)cc3F)c12 [Example 11, (S)-2-Amino-3-(3-fluoro-4-((3-methyl-1H-pyrrolo[2,3-b]pyridin-4-yl)oxy)phenyl)-1-(7-methyl-4,7-diazaspiro[2.5]octan-4-yl)propan-1-one] |
| < 3 | < 3 | Cc1c[nH]c2nccc(Oc3ccc(C[C@H](N)C(=O)N4CCC(O)(CO)CC4)cc3F)c12 [Example 9, (S)-2-Amino-3-(3-fluoro-4-((3-methyl-1H-pyrrolo[2,3-b]pyridin-4-yl)oxy)phenyl)-1-(4-hydroxy-4-(hydroxymethyl)piperidin-1-yl)propan-1-one] |
| < 3 | < 3 | Cc1c[nH]c2nccc(Oc3ccc(C[C@H](N)C(=O)NC4CCN(C5CCC5)CC4)cc3F)c12 [Example 1, (S)-2-Amino-N-(1-cyclobutylpiperidin-4-yl)-3-(3-fluoro-4-((3-methyl-1H-pyrrolo[2,3-b]pyridin-4-yl)oxy)phenyl)propanamide] |
| < 3 | < 3 | Cc1c[nH]c2nccc(Oc3ccc(C[C@H](N)C(=O)NC4(CO)CCN(C5CC5)CC4)cc3F)c12 [Example 20, (S)-2-Amino-N-(1-cyclopropyl-4-(hydroxymethyl)piperidin-4-yl)-3-(3-fluoro-4-((3-methyl-1H-pyrrolo[2,3-b]pyridin-4-yl)oxy)phenyl)propanamide] |
| < 3 | < 3 | Cc1c[nH]c2nccc(Oc3ccc(C[C@H](N)C(=O)NC4CCN(C5CC5)CC4)cc3F)c12 [Example 5, (S)-2-Amino-N-(1-cyclopropylpiperidin-4-yl)-3-(3-fluoro-4-((3-methyl-1H-pyrrolo[2,3-b]pyridin-4-yl)oxy)phenyl)propanamide] |
| < 3 | < 3 | CN1CCC(NC(=O)[C@@H](N)Cc2ccc(Oc3ccnc4[nH]cc(C5CC5)c34)c(F)c2)CC1 [Example 40, (S)-2-Amino-3-(4-((3-cyclopropyl-1H-pyrrolo[2,3-b]pyridin-4-yl)oxy)-3-fluorophenyl)-N-(1-methylpiperidin-4-yl)propanamide] |
| < 3 | < 3 | CNC(=O)C1(NC(=O)[C@@H](N)Cc2ccc(Oc3ccnc4[nH]cc(C)c34)c(F)c2)CCCCC1 [Example 29, (S)-1-(2-amino-3-(3-fluoro-4-((3-methyl-1H-pyrrolo[2,3-b]pyridin-4-yl)oxy)phenyl)propanamido)-N-methylcyclohexane-1-carboxamide] |
| < 3 | < 3 | Cc1c[nH]c2nccc(Oc3ccc(C[C@H](N)C(=O)NC4CCN(CC(C)C)CC4)cc3F)c12 [Example 6, (S)-2-Amino-3-(3-fluoro-4-((3-methyl-1H-pyrrolo[2,3-b]pyridin-4-yl)oxy)phenyl)-N-(1-isobutylpiperidin-4-yl)propanamide] |
| < 3 | < 3 | Cc1c[nH]c2ncnc(Oc3c(F)cc(C[C@H](N)C(=O)N4CCC(S(=O)(=O)c5ccccc5)CC4)cc3F)c12 [Example 41, (S)-2-Amino-3-(3,5-difluoro-4-((5-methyl-7H-pyrrolo[2,3-d]pyrimidin-4-yl)oxy)phenyl)-1-(4-(phenylsulfonyl)piperidin-1-yl)propan-1-one] |
| < 3 | < 3 | Cc1c[nH]c2nccc(Oc3ccc(C[C@H](N)C(=O)NC4(C)CCN(C)CC4)cc3F)c12 [Example 4, (S)-2-Amino-N-(1,4-dimethylpiperidin-4-yl)-3-(3-fluoro-4-((3-methyl-1H-pyrrolo[2,3-b]pyridin-4-yl)oxy)phenyl)propanamide] |
| < 3 | < 3 | Cc1c[nH]c2nccc(Oc3ccc(C[C@H](N)C(=O)NC4(C(=O)NCCO)CCCCC4)cc3F)c12 [Example 44, (S)-1-(2-amino-3-(3-fluoro-4-((3-methyl-1H-pyrrolo[2,3-b]pyridin-4-yl)oxy)phenyl)propanamido)-N-(2-hydroxyethyl)cyclohexanecarboxamide] |
| < 3 | < 3 | Cc1cccc(S(=O)(=O)C2CCN(C(=O)[C@@H](N)Cc3ccc(Oc4ccnc5[nH]cc(C)c45)c(F)c3)CC2)c1 [Example 31, (S)-2-Amino-3-(3-fluoro-4-((3-methyl-1H-pyrrolo[2,3-b]pyridin-4-yl)oxy)phenyl)-1-(4-(m-tolylsulfonyl)piperidin-1-yl)propan-1-one] |
| < 3 | < 3 | Cc1c[nH]c2nccc(Oc3ccc(C[C@H](N)C(=O)NC4CCN(C)CC4(C)C)cc3F)c12 (single isomer, unassigned) [Example 8a] |
| 3 to 30 | < 3 | Cc1c[nH]c2ncnc(Oc3ccc(C[C@H](N)C(=O)NC4(C(N)=O)CCCCC4)cc3F)c12 [Example 32, (S)-1-(2-amino-3-(3-fluoro-4-((5-methyl-7H-pyrrolo[2,3-d]pyrimidin-4-yl)oxy)phenyl)propanamido)cyclohexanecarboxamide] |
| < 3 | < 3 | COCCN1CCC(NC(=O)[C@@H](N)Cc2ccc(Oc3ccnc4[nH]cc(C)c34)c(F)c2)CC1 [Example 14, (S)-2-Amino-3-(3-fluoro-4-((3-methyl-1H-pyrrolo[2,3-b]pyridin-4-yl)oxy)phenyl)-N-(1-(2-methoxyethyl)piperidin-4-yl)propanamide] |
| < 3 | < 3 | Cc1c[nH]c2nccc(Oc3ccc(C[C@H](N)C(=O)NC4CCN(C5COC5)CC4)cc3F)c12 [Example 3, (S)-2-Amino-3-(3-fluoro-4-((3-methyl-1H-pyrrolo[2,3-b]pyridin-4-yl)oxy)phenyl)-N-(1-(oxetan-3-yl)piperidin-4-yl)propanamide] |
| 3 to 30 | 3 to 30 | Cc1c[nH]c2nccc(Oc3ccc(C[C@H](N)C(=O)NC4CCCN(C)C4)cc3F)c12 (single isomer, unassigned) [Example 17] |
| < 3 | < 3 | Cc1c[nH]c2nccc(Oc3ccc(C[C@H](N)C(=O)NC4CCN(C)CC4(C)C)cc3F)c12 (single isomer, unassigned) [Example 8b] |
| < 3 | < 3 | Cc1c[nH]c2nccc(Oc3ccc(C[C@H](N)C(=O)NC4CCN(C5CCOC5)CC4)cc3F)c12 (stereo partly drawn) [Example 2, (2S)-2-Amino-3-(3-fluoro-4-((3-methyl-1H-pyrrolo[2,3-b]pyridin-4-yl)oxy)phenyl)-N-(1-(tetrahydrofuran-3-yl)piperidin-4-yl)propanamide] |
| < 3 | < 3 | CNC(=O)C1(NC(=O)[C@@H](N)Cc2ccc(Oc3ncnc4[nH]cc(C)c34)c(F)c2)CCCCC1 [Example 33, (S)-1-(2-amino-3-(3-fluoro-4-((5-methyl-7H-pyrrolo[2,3-d]pyrimidin-4-yl)oxy)phenyl)propanamido)-N-methylcyclohexanecarboxamide] |
| 3 to 30 | < 3 | Cc1c[nH]c2ncnc(Oc3ccc(C[C@H](N)C(=O)NC4(CO)CCOCC4)cc3F)c12 [Example 36, (S)-2-Amino-3-(3-fluoro-4-((5-methyl-7H-pyrrolo[2,3-d]pyrimidin-4-yl)oxy)phenyl)-N-(4-(hydroxymethyl)tetrahydro-2H-pyran-4-yl)propanamide] |
| < 3 | < 3 | Cc1c[nH]c2nccc(Oc3ccc(C[C@H](N)C(=O)N4C[C@@H]5CN(C6CC6)C[C@@H]5C4)cc3F)c12 [Example 12, (S)-2-Amino-1-((3aR,6aS)-5-cyclopropylhexahydropyrrolo[3,4-c]pyrrol-2(1H)-yl)-3-(3-fluoro-4-((3-methyl-1H-pyrrolo[2,3-b]pyridin-4-yl)oxy)phenyl)propan-1-one] |
